Test results taken from ChEMBL document CHEMBL4706547, “Discovery and structure-activity relationship studies of 1-aryl-1H-naphtho[2,3-d][1,2,3]triazole-4,9-dione derivatives as potent dual inhibitors of indoleamine 2,3-dioxygenase 1 (IDO1) and trytophan 2,3-dioxygenase (TDO)” (Eur J Med Chem, 2020).
Values after ≈ are worked out from the molar mass of the structure shown. Active and inactive are the calls of the source. The calls are words filed in the database; no cut-off is given here.

How the values were obtained:
[1] = molecular target: T1, Tryptophan 2,3-dioxygenase (Homo sapiens, UniProt P48775); experiment: Inhibition of TDO (unknown origin) assessed as reduction in L-kynurenine formation using L-tryptophan as substrate incubated for 30 mins microplate spectrophotometry analysis
T1 sequence (P48775 whole entry): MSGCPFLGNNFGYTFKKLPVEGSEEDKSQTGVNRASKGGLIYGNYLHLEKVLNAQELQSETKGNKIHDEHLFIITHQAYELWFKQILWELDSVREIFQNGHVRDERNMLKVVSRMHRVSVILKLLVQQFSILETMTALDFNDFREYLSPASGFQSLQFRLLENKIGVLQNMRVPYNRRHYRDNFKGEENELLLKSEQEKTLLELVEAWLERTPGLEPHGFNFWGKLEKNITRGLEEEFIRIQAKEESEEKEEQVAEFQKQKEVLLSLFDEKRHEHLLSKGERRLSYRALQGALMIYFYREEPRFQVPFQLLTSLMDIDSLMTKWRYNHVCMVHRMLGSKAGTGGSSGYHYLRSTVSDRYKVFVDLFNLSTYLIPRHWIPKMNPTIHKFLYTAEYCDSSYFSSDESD

[2] = molecular target: T2, Indoleamine 2,3-dioxygenase 1 (Homo sapiens, UniProt P14902)
T2 sequence (P14902 whole entry): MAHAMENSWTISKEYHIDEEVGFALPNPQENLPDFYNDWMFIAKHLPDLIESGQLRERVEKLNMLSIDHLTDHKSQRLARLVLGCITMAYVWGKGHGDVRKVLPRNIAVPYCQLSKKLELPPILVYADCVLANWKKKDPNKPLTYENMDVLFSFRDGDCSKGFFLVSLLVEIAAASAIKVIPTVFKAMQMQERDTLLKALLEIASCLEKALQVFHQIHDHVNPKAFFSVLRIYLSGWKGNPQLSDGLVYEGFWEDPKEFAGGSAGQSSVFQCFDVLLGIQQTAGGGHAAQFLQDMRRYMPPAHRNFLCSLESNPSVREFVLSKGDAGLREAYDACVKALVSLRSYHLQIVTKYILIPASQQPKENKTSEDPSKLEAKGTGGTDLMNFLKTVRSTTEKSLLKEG

[3] = Redox activity of compound assessed as increase in H2O2 production at > 50 uM incubated for 15 mins by HRP-PR staining based fluorometric analysis relative to control; format: physicochemical; conditions: 0.25 h
[4] = Redox activity of compound assessed as increase in H2O2 production incubated for 15 mins by HRP-PR staining based fluorometric analysis; format: physicochemical; conditions: 0.25 h
[5] = molecular target: T2, Indoleamine 2,3-dioxygenase 1; experiment: Inhibition of IDO1 in IFN-gamma-induced human HeLa cells assessed as reduction in L-kynurenine formation using L-tryptophan as substrate incubated for 24 hrs
[6] = molecular target: T1, Tryptophan 2,3-dioxygenase; experiment: Inhibition of TDO in human A 172 cells assessed as reduction in L-kynurenine formation using L-tryptophan as substrate incubated for 24 hrs; format: cell-based
[7] = Antitumor activity against […] cells allografted in C57BL/6 mouse assessed as tumor growth inhibition at 30 mg/kg, ip administered for 11 days and measured upto 20 days relative to control; format: functional; conditions: LL/2, ip, time day <=20, read-out: TGI
[8] = Antitumor activity against […] cells allografted in C57BL/6 mouse assessed as tumor growth inhibition at 30 mg/kg, ip administered for 11 days and measured upto 20 days relative to control; format: functional; conditions: Hepa1-6, ip, time day <=20, read-out: TGI
[9] = Solubility of compound; format: physicochemical
[10] = Toxicity in C57BL/6 mouse […] with […] cells assessed as effect on body weight at 30 mg/kg, ip administered for 11 days and measured upto 20 days; format: organism-based; conditions: in vivo, time <=20 day
[11] = Toxicity in C57BL/6 mouse […] with […] cells assessed as effect on body weight at 30 mg/kg, ip administered for 11 days and measured upto 20 days; format: organism-based; conditions: in vivo, time <=20 day
[12] = test system: LL2; conditions: dose 30.0 mg/kg, time day <=20

Row | Structure (SMILES) | IC50 [1] [nM] | IC50 [2] [nM] | further results
1 | O=C(O)c1cccc(-n2nnc3c2C(=O)c2ccccc2C3=O)c1 | 71 | 114 | 
2 | O=C1c2ccc(O)cc2C(=O)c2c1nnn2-c1ccc(F)c(Cl)c1 | 384 | 355 | 
3 | CC(=O)Nc1cccc(-n2nnc3c2C(=O)c2ccccc2C3=O)c1 | 132 | 81 | 
4 | NS(=O)(=O)NCCNc1nonc1C(=NO)Nc1ccc(F)c(Br)c1 [EPACADOSTAT] | > 10000 |  | 
5 | O=C1c2ccccc2C(=O)c2c1nnn2Cc1ccccc1 | 858 | 886 | 
6 | COc1ccc2c(c1)C(=O)c1nnn(-c3ccc(F)c(Cl)c3)c1C2=O | 105 | 163 | 
7 | CN1CCN(C(=O)c2cccc(Cn3nnc4c3C(=O)c3ccccc3C4=O)c2)CC1 |  | 658 | 
8 | O=C1c2ccccc2C(=O)c2c1nnn2-c1ccccc1Cl | > 10000 | > 10000 | 
9 | O=C1c2ccccc2C(=O)c2c1nnn2-c1ccc2[nH]cnc2c1 | 104 | 78 | 
10 | O=C1c2ccccc2C(=O)c2c1nnn2-c1cnc(Cl)c(Cl)c1 | 248 | 113 | 
11 | CN1CCN(c2ccc(-n3nnc4c3C(=O)c3ccccc3C4=O)cc2)CC1 | > 10000 | > 10000 | 
12 | O=C1c2cc(O)ccc2C(=O)c2c1nnn2-c1ccc(F)c(Cl)c1 | 171 | 144 | 
13 | O=C1c2ccccc2C(=O)c2c1nnn2-c1cccc(F)c1 | 101 | 52 | 
14 | COc1ccc2c(c1)C(=O)c1c(nnn1-c1ccc(F)c(Cl)c1)C2=O | > 10000 | > 10000 | 
15 | NS(=O)(=O)NCCNc1nonc1/C(=N/O)Nc1ccc(F)c(Br)c1 [EPACADOSTAT] |  |  | inhibition in vivo at 30 mg/kg [8]: 50%; TGI [12]: Active

Continued by falling IC50 [1], values first:

Row | IC50 [1] [nM] | IC50 [2] [nM] | Structure (SMILES) | further results
16 | 70 | 100 | O=C1c2ccccc2C(=O)c2c1nnn2-c1ccccc1 | 
17 | 66 | 26 | N#Cc1ccc(-n2nnc3c2C(=O)c2ccccc2C3=O)cc1 | 
18 | 64 | 122 | Cc1cccc(-n2nnc3c2C(=O)c2ccccc2C3=O)c1 | 
19 | 58 | 34 | COC(=O)c1ccc(-n2nnc3c2C(=O)c2ccccc2C3=O)cc1 | 
20 | 49 | 58 | O=C1c2ccccc2C(=O)c2c1nnn2-c1ccc(F)cc1 | 
21 | 48 | 33 | O=C1c2ccccc2C(=O)c2c1nnn2-c1ccc([N+](=O)[O-])cc1 | 
22 | 48 | 30 | NS(=O)(=O)c1ccc(-n2nnc3c2C(=O)c2ccccc2C3=O)cc1 | 
23 | 42 | 45 | O=C1c2ccccc2C(=O)c2c1nnn2-c1ccc2[nH]ncc2c1 | 
24 | 36 | 40 | O=C1c2ccccc2C(=O)c2c1nnn2-c1cccc(Cl)c1 | 
25 | 34 | 40 | O=C1c2ccccc2C(=O)c2c1nnn2-c1ccc2ccncc2c1 | 
26 | 34 | 33 | O=C1c2ccccc2C(=O)c2c1nnn2-c1cc(Cl)c(F)c(Cl)c1 | 
27 | 28 | 29 | O=C1c2ccccc2C(=O)c2c1nnn2-c1cccc([N+](=O)[O-])c1 | 
28 | 25 | 60 | O=C1c2ccccc2C(=O)c2c1nnn2-c1ccc(-c2nnn[nH]2)cc1 | 
29 | 25 | 27 | O=C1c2ccccc2C(=O)c2c1nnn2-c1ccc(Cl)nc1 | 
30 | 25 | 30 | O=C1c2ccccc2C(=O)c2c1nnn2-c1ccc(C(F)(F)F)c(Cl)c1 | 
31 | 21 | 23 | O=C1c2ccccc2C(=O)c2c1nnn2-c1cccnc1 | 
32 | 18 | 20 | O=C1c2ccccc2C(=O)c2c1nnn2-c1ccc(Cl)c(F)c1 | 
33 | 18 | 23 | O=C1c2ccccc2C(=O)c2c1nnn2-c1ccc(Cl)c(Cl)c1 | 
34 | 15 | 23 | O=C1c2ccccc2C(=O)c2c1nnn2-c1ccc(Cl)cc1 | 
35 | 15 | 15 | O=C1c2ccccc2C(=O)c2c1nnn2-c1ccc(Cl)c([N+](=O)[O-])c1 | 
36 | 14 | 13 | O=C1c2ccccc2C(=O)c2c1nnn2-c1ccc(F)c(Cl)c1 | 
37 | 10 | 10 | O=C1c2ccc(F)cc2C(=O)c2c1nnn2-c1ccc(F)c(Cl)c1 | 
38 | 4 | 5 | O=C1c2cc(F)ccc2C(=O)c2c1nnn2-c1ccc(F)c(Cl)c1 | Activity [3]: Not Active; Activity [4]: Not Active; IC50 [5]: 98 nM; IC50 [6]: 59 nM; inhibition in vivo at 30 mg/kg [7]: 62.5%; inhibition in vivo at 30 mg/kg [8]: 80%; solubility [9]: 0.16 µM (≈ 0.0553 µg/mL); Activity [10]: Non-Toxic; Activity [11]: Non-Toxic
